According to US7141251B2, “Pharmacologically active strong acid solutions” (Cytorex Biosciences, inc., priority 2001, dated 2006):

Columns and labels:
[1] = in water; cited from earlier work
[2] = Example 27: patient with hypertension; conditions: 180/110 without medication

Row | SMILES | Grade of Ionization (α) [1] | blood pressure [2]
1 | O=C(O)C(=O)O [Formulation H2C2O4, oxalic acid] | α = 1 | –
2 | CC(C)NCC(O)COc1ccc(CC(N)=O)cc1 (stereo not drawn) [Atenolol] | – | 150/90
3 | O=C(O)CC(O)(CC(=O)O)C(=O)O [Formulation H8C6O7, citric acid] | α < 1 | –
